Reference: patent US20130045483A1, “YEAST CELLS EXPRESSING AMYLOID BETA AND USES THEREFOR” (priority 2011, published 2013)

Tests used:
ssAβ 1-42 strain = test: Clioquinol rescue in liquid culture (Bioscreen OD600 growth); format: cell-based, yeast; conditions: for growth of the Aβ expressing strain: inducing (galactose) media, various concentrations; for growth at the optimal concentration compared with control strain: control strain expressing YFP
Experimental: (§1) To further test the effect of clioquinol, a control strain and a strain expressing toxic levels of Aβ were grown in liquid culture with various concentrations of the compound.
Yeast strains were grown overnight to saturation in synthetic medium with glucose as the carbon source after inoculation from a colony. These cultures were used to inoculate raffinose cultures. Raffinose cultures in log phase growth (OD600 0.7-0.9) were diluted to an OD600 of 0.03 in synthetic medium with galactose as the carbon source, and […] of the cell suspension was distributed to each well of a Bioscreen plate. […] of clioquinol (Sigma C8133, ˜95%), dissolved in DMSO at 100 times the final intended concentration, was added to each well. A Labsystems Bioscreen C was used to maintain the plate at 30 degrees C. and make OD600 measurements on each well at 10-minute intervals over a period of approximately three days. Each condition was performed in duplicate.

GAL controlled YFP = test: GAL1-induced expression, flow cytometry of GAL controlled YFP; format: cell-based, yeast; conditions: flow cytometry of GAL controlled YFP (data not shown)
Experimental: as §1
A strain carrying an integrated YFP was transformed with the putative Aβ suppressors. The resulting strains were grown in glucose media in a 96 well format, diluted into the various inducing media (galactose, glucose+1 uM estradiol, glycerol+1 uM estradiol) [5 ul culture added to 120 ul media], and incubated over night at 30° C. with mild shaking. These overnight cultures were diluted 20 fold into water and YFP levels were measured using a Guava flow cytometer. Each strain was measured 3 times and 5000 cells were counted for each well. The whole experiment was repeated 3 times. Values are averages of these 3 experiments and reported in percent of the vector control strain YFP levels.

Oc1c(I)cc(Cl)c2cccnc12 [clioquinol]
toxicity at higher concentrations (ssAβ 1-42 strain; higher concentrations, ssAβ 1-42 strain and YFP control strain): toxic to both strains
growth of the Aβ expressing strain (ssAβ 1-42 strain): rescued growth levels in a dose dependent manner
growth of the Aβ expressing strain (ssAβ 1-42 strain; listed as Clioquinol): improved the growth of the Aβ expressing strain in a dose dependent manner
growth at the optimal concentration compared with control strain (ssAβ 1-42 strain): restored growth levels to those of a control strain expressing YFP
growth at the optimal concentration compared with control strain (ssAβ 1-42 strain; listed as Clioquinol): nearly as robust as that of the control strain
effect on GAL1-induced expression (GAL controlled YFP): did not diminish GAL1-induced expression
